The values that follow come from patent US20020155192A1, “Yeast transport isoforms” (priority 2000, published 2002).

One may read the Ki as a dissociation constant, usually derived from enzyme kinetics or from competition with a known ligand.

What all share (format): biochemical
Experiment [1] deals with T1, Odc1p (Saccharomyces cerevisiae, UniProt Q03028).
T1 construct: made in house; host or cells: S. cerevisiae odc1Δodc2Δ (YPH499 background) carrying pYES2-based pODC1; purified from mitochondria on Ni-NTA agarose
T1 sequence (Q03028 1-310): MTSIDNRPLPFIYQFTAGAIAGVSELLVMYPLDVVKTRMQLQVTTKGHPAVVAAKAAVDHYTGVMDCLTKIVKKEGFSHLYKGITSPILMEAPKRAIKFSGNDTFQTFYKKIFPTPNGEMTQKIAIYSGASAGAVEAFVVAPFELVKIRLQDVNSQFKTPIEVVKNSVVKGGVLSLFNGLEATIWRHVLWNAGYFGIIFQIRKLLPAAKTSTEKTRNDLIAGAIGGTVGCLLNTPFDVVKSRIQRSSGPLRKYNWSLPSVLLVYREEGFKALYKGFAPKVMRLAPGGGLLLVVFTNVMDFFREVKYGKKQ
The experiment is described as follows: Dependence on internal substrate of [14C]oxoglutarate uptake into proteoliposomes reconstituted with recombinant Odc1p. The note with it: Odc1p; for [14C]oxoglutarate transport: proteoliposomes preloaded with 20 mM internal substrate, 0.6 mM [14C]oxoglutarate, 45 seconds; for [14C]oxoglutarate uptake with the internal substrate (in words): proteoliposomes preloaded with various substrates. The procedure: (§1) Reconstitution of the ODC proteins into liposomes—Purified ODC proteins were reconstituted by cyclic removal of the detergent with a hydrophobic column (13). The composition of the initial mixture used for reconstitution was: 200 μl of purified isoform (0.3-0.4 μg of protein), 70 μl of 10% Triton X-114, 100 μl of 10% phospholipids in the form of sonicated liposomes, 20 mM oxoglutarate (except where otherwise indicated), 10 mM Pipes (pH 7.0), 0.7 mg of cardiolipin (Sigma) and water to a final volume of 700 μl. These components were mixed thoroughly, and the mixture was recycled 13 times through an Amberlite column (Supelco) (3.0 cm×0.5 cm) preequilibrated with a buffer containing 10 mM Pipes (pH 7.0) and with the substrate at the same concentration as in the starting mixture. All operations were performed at 4° C., except the passages through Amberlite, which were carried out at room temperature.
(§2) External substrate was removed from proteoliposomes on a Sephadex G-75 column preequilibrated with buffer F (50 mM NaCl and 10 mM PIPES, pH 7.0). Transport at 25° C. was started by adding [^14C]oxoglutarate (unless otherwise indicated) to the proteoliposomes, and terminated by addition of 30 mM pyridoxal 5′-phosphate and 10 mM bathophenanthroline (the “inhibitor-stop” method (13)). In controls, inhibitors were added with the labelled substrate. The external radioactivity was removed on Sephadex G-75 and the internal radioactivity was measured. […] The initial rate of transport was calculated in mmol/min per g protein from the time course of isotope equilibration (13). Various other transport activities were also assayed by the inhibitor-stop method. For efflux measurements, the internal substrate pool of the proteoliposomes was made radioactive by carrier-mediated exchange equilibration (13) with 0.1 mM [^14C]oxoglutarate added at high specific radioactivity. After 60 min, the residual external radioactivity was removed by passing the proteoliposomes again through a column of Sephadex G-75. Efflux was started by adding unlabelled external substrate or buffer F alone and terminated by adding the inhibitors indicated above.
(§3) The substrate specificity of purified Odc1p and Odc2p was investigated further by measuring the uptake of [^14C]oxoglutarate into proteoliposomes which had been preloaded with various substrates.
(§4) Proteoliposomes were preloaded internally with various substrates (concentration, 20 mM). Transport was started by adding [^14C]oxoglutarate (final concentration, 0.6 mM) and terminated after 45 seconds.

In experiment [2] the target is T2, Odc2p (Saccharomyces cerevisiae, UniProt Q99297).
T2 construct: made in house; host or cells: S. cerevisiae odc1Δodc2Δ (YPH499 background) carrying pYES2-based pODC2; purified from mitochondria on Ni-NTA agarose
T2 sequence (Q99297 1-307): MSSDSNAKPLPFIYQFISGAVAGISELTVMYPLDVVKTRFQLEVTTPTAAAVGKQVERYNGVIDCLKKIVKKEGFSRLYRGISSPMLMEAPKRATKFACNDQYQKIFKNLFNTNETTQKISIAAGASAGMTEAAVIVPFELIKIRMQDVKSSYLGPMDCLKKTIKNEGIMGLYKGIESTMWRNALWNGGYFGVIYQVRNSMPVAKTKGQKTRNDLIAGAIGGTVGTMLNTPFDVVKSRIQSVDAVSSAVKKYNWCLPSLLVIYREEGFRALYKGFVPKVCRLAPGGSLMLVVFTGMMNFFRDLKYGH
Description: Dependence on internal substrate of [14C]oxoglutarate uptake into proteoliposomes reconstituted with recombinant Odc2p. The note with it: Odc2p; for [14C]oxoglutarate transport: proteoliposomes preloaded with 20 mM internal substrate, 0.6 mM [14C]oxoglutarate, 45 seconds; for [14C]oxoglutarate uptake with the internal substrate (in words): proteoliposomes preloaded with various substrates. The protocol: as §1, §2, §3, §4

Experiment [3] addresses T1, Odc1p. Description: Kinetic constants (Km, Vmax, Ki) of recombinant purified Odc1p in proteoliposomes. The procedure: as §2
(§5) The kinetic constants of the recombinant purified Odc1p and Odc2p were determined by measuring the initial transport rate at various external [^14C]oxoglutarate concentrations, in the presence of a constant saturating internal concentration of 20 mM oxoglutarate.
(§6) The values were calculated from Lineweaver-Burk plots of the rate of [^14C]oxoglutarate versus substrate concentrations. The competing substrates at appropriate constant concentrations were added together with 0.1-2.0 mM [^14C]oxoglutarate to proteoliposomes containing 20 mM oxoglutarate and reconstituted with recombinant Odc1p or Odc2p. The data represent the means ±S.D. of at least three different experiments. n.d., not determined.

Experiment [4] concerns the target T2, Odc2p. The experiment is described as follows: Kinetic constants (Km, Vmax, Ki) of recombinant purified Odc2p in proteoliposomes. The protocol:
as §2, §5, §6

Experiment [5] concerns the target T1, Odc1p. The experiment is described as follows: Effect of inhibitors and external compounds on the [14C]oxoglutarate/oxoglutarate exchange by proteoliposomes reconstituted with Odc1p. Particulars: Odc1p; for Inhibition (%) of [14C]oxoglutarate/oxoglutarate exchange: 20 mM internal oxoglutarate, 0.4 mM [14C]oxoglutarate, 45 seconds, inhibitors 4 mM, except mercurials 10 μM, carboxyatractyloside 0.1 mM, N-ethylmaleimide and α-cyanocinnamate 2 mM; for inhibition of [14C]oxoglutarate/oxoglutarate exchange (in words): Table III.

Experiment [6] addresses T2, Odc2p. The experiment is described as follows: Effect of inhibitors and external compounds on the [14C]oxoglutarate/oxoglutarate exchange by proteoliposomes reconstituted with Odc2p. The note with it: Odc2p; for inhibition of [14C]oxoglutarate/oxoglutarate exchange (in words): Table III.
Experiment [7] has as its target T1, Odc1p. The experiment is described as follows: Efflux of [14C]oxoglutarate from proteoliposomes reconstituted with recombinant Odc1p. The note with it: 10 mM oxoglutarate with 30 mM pyridoxal 5′-phosphate and 10 mM bathophenanthroline added together. The protocol: FIG. 4. Efflux of [^14C]oxoglutarate from proteoliposomes. Proteoliposomes were reconstituted with recombinant Odc1p in the presence of 20 mM oxoglutarate, and then the internal substrate pool was labelled by carrier-mediated exchange equilibration. After removal of external substrate by Sephadex G-75 chromatography, the efflux of [^14C]oxoglutarate was started by adding buffer F alone (●) or 10 mM oxoglutarate (▪), or 10 mM oxoglutarate, 30 mM pyridoxal 5′-phosphate and 10 mM bathophenanthroline (□) in the same buffer.
External substrate was removed from proteoliposomes on a Sephadex G-75 column preequilibrated with buffer F (50 mM NaCl and 10 mM PIPES, pH 7.0). […] The external radioactivity was removed on Sephadex G-75 and the internal radioactivity was measured. […] The initial rate of transport was calculated in mmol/min per g protein from the time course of isotope equilibration (13). […] For efflux measurements, the internal substrate pool of the proteoliposomes was made radioactive by carrier-mediated exchange equilibration (13) with 0.1 mM [^14C]oxoglutarate added at high specific radioactivity. After 60 min, the residual external radioactivity was removed by passing the proteoliposomes again through a column of Sephadex G-75. […]

Where [8] appears, read: Odc1p, Lineweaver-Burk plots, 0.1-2.0 mM [14C]oxoglutarate, 20 mM internal oxoglutarate, means ±S.D., read-out: Ki (competition with [14C]oxoglutarate uptake).
[9] abbreviates: Odc2p, Lineweaver-Burk plots, 0.1-2.0 mM [14C]oxoglutarate, 20 mM internal oxoglutarate, means ±S.D., read-out: Ki (competition with [14C]oxoglutarate uptake).

Read-outs that look alike come from different tables or passages of the source.

On to `O=C(O)CCCC(=O)C(=O)O` [2-Oxoadipate], for which the “[14C]oxoglutarate transport” value on Odc1p [1] is 85.0 mmol/min per g protein; at Odc2p [2], 22.1 mmol/min per g protein. The “[14C]oxoglutarate uptake with the internal substrate (in words)” value (“[14C]oxoglutarate uptake” for short) on Odc1p [1] and on Odc2p [2] was “taken up efficiently” throughout. The Ki on Odc1p [3] (setting [8]) turned out to be 260 ± 30 µM; at Odc2p [4] (setting [9]), 310 ± 40 µM.

For `O=C(O)CCCCC(=O)C(=O)O` [2-Oxopimelate], the results for the “[14C]oxoglutarate transport” value at Odc1p [1] and at Odc2p [2] were 71.6 mmol/min per g protein and 14.8 mmol/min per g protein, respectively. The “[14C]oxoglutarate uptake” value on Odc1p [1] and at Odc2p [2] was “taken up efficiently” in each case. The figures for the inhibition constant Ki on Odc1p [3] (setting [8]) and on Odc2p [4] (setting [9]) were 1830 ± 200 µM and 1640 ± 180 µM, respectively.

Take `c1ccc(-c2ccnc3c2ccc2c(-c4ccccc4)ccnc23)cc1` [Bathophenanthroline]: the “Inhibition (%) of [14C]oxoglutarate/oxoglutarate exchange” value at Odc1p [5] came out at 97%; at Odc2p [6] (20 mM internal oxoglutarate, 0.4 mM [14C]oxoglutarate, 45 seconds, inhibitors 4 mM, except mercurials 10 μM, carboxyatractyloside 0.1 mM, N-ethylmaleimide and α-cyanocinnamate 2 mM), 89%. The “inhibition of [14C]oxoglutarate/oxoglutarate exchange (in words)” value against Odc1p [5] and at Odc2p [6] was “inhibited strongly” each time. For the same compound, on Odc1p [7], the “effect on efflux of [14C]oxoglutarate induced by external oxoglutarate (in words)” value is “prevented completely”.

Turning to `O=C(O)CC(O)(CC(=O)O)C(=O)O` [Citrate], the results for the “[14C]oxoglutarate transport” value on Odc1p [1] and at Odc2p [2] were 28.6 mmol/min per g protein and 8.0 mmol/min per g protein, respectively. Further, the “[14C]oxoglutarate uptake” value at Odc1p [1] and on Odc2p [2] was “much lower activity” throughout. In addition, the inhibitory constant (Ki) on Odc1p [3] was 6000 ± 800 µM; at Odc2p [4], 5900 ± 600 µM.

In the case of `O=C(O)C[C@H](O)C(=O)O` [L-malate], the “[14C]oxoglutarate transport” value was 56.4 mmol/min per g protein at Odc1p [1] and 11.4 mmol/min per g protein at Odc2p [2]. Moreover, the “[14C]oxoglutarate uptake” value at Odc1p [1] and on Odc2p [2] was “taken up efficiently” each time. In addition, the inhibitory constant (Ki) on Odc1p [3] (setting [8]) is 1320 ± 130 µM; on Odc2p [4] (setting [9]) it was 1370 ± 160 µM.

With `Cc1ncc(COP(=O)(O)O)c(C=O)c1O` [Pyridoxal 5′-phosphate], on Odc1p [5], the “Inhibition (%) of [14C]oxoglutarate/oxoglutarate exchange” value is listed as 92% and the “inhibition of [14C]oxoglutarate/oxoglutarate exchange (in words)” value is “inhibited strongly”. On Odc2p [6], the “inhibition of [14C]oxoglutarate/oxoglutarate exchange (in words)” value is on record as “inhibited strongly”. Besides, the “effect on efflux of [14C]oxoglutarate induced by external oxoglutarate (in words)” value at Odc1p [7] was “prevented completely”.
